Results published in publication PMC4981720, “Identification of Multiple Cryptococcal Fungicidal Drug Targets by Combined Gene Dosing and Drug Affinity Responsive Target Stability Screening” (mBio, 2016).

Target: T1, malate dehydrogenase (Mdh3) (Cryptococcus neoformans, UniProt J9VXN5)
T1 construct: gene CNAG_03225; Mdh3-MBP fusion protein expressed in S. cerevisiae
T1 sequence (J9VXN5 1-338): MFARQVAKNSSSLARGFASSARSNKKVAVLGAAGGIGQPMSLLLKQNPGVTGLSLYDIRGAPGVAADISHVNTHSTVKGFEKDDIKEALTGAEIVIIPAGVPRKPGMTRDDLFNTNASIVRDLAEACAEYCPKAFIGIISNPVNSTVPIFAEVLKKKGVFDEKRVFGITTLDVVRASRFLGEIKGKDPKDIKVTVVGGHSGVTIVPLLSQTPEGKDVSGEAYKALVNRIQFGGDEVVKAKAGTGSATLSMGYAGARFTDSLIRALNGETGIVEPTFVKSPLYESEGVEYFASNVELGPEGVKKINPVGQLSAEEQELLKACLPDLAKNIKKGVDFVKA
Experiment: steady-state enzyme kinetics with recombinant Mdh3-MBP, NAD turnover at […] nm, with or without […] bithionol
Format: biochemical

Ki: 3 µM
Compound: Oc1c(Cl)cc(Cl)cc1Sc1cc(Cl)cc(Cl)c1O [bithionol]
